# Results as given in patent publication US8686048B2, “Immunomodulator and anti-inflammatory compounds” (Rhizen Pharmaceuticals SA, priority 2010, dated 2014).
# Tests used:
# [1] = target: T1, h-DHODH (Homo sapiens, UniProt Q02127); test: Dihydro-orotate dehydrogenase inhibition assay (U937 membrane preparations, DCIP reduction); type: biochemical; settings: U937 membrane preparation
# T1 construct: endogenous in cells; host or cells: U937 cells (membrane fraction, solubilised with 1% octyl glucoside)
# Method: Dihydro-Orotate Dehydrogenase Inhibition Assay
# Dihydro-orotate dehydrogenase (DHODH) catalyzes the […] of dihydro-orotate to orotate during de novo biosynthesis of pyrimidines Inhibition of DHODH activity in U937 membrane preparations was measured by the dihydro-orotate driven reduction of 2,6 dichloroindophenol (DCIP).
# U937 cells were homogenized in 20 mM Tris/HCl (pH 7.2) containing 1 mM EDTA. […] Following washes, the pellet was dissolved in 20 mM Tris/HCl containing 150 mM NaCl, 1 mM EDTA, and 1% octyl glucoside on ice for 1 h. Particulate matter was removed by centrifugation at 100000×g for 1 h at 4° C. […] The mixture was incubated at 37° C. for 4 h before measuring the change in absorbance on a plate reader (BMG Labtech., Germany) at 600 nm. Data were analyzed using GraphPad Prism. IC50 for each compound was determined based on the percent inhibition of dihydro-orotate […].
# [2] = system: IL-17; test: Inhibition of IL-17 release from mouse splenocytes (PMA + ionomycin, ELISA); type: cell-based, Balb/c mice; settings: Splenocyte, 10 μM, 3 h
# Method: 2. Inhibition of IL-17 Release from Mouse Splenocytes:
# Splenocytes isolated from Balb/c mice were re-suspended in RPMI medium at a concentration of 1×10^6 cells/ml and seeded in a 6 well plate. Cells were incubated with desired concentrations of the inhibitor for 15 min prior to induction with 10 ng/ml PMA+1 μM ionomycin. After a 3 h incubation, supernatant was collected and analyzed for IL-17 concentration using an ELISA kit. Data were analyzed using GraphPad Prism. IC50 values for each compound were determined based on the percent inhibition due to the test compound compared to the control.
# T1 sequence (Q02127 whole entry): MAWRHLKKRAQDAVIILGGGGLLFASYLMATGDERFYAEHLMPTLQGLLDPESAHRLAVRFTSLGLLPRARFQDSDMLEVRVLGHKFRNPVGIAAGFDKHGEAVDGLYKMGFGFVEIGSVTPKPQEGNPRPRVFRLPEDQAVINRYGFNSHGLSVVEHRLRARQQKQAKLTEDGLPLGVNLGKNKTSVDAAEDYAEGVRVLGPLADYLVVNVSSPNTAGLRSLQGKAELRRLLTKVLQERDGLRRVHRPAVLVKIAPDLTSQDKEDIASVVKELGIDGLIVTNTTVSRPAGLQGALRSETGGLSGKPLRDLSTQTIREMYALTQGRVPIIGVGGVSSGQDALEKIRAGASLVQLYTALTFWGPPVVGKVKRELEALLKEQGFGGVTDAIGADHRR
melting point [°C],inhibition at 1 µM [1] [%],IC50 [1] [nM],h-DHODH % inhibition 1 uM [1] [%],inhibition at 0.3 µM ([1]; compound tested at 0.3 uM (footnote *)) [%],inhibition at 10 µM ([1]; compound tested at 10 uM) [%],SMILES,inhibition at 10 µM [2] [%]
148.2 to 151.4,–,205,64.47,–,–,"O=C(O)c1ccccc1C(=O)Nc1c(F)cc(-c2cccc(OC(F)(F)F)c2)cc1F [Example 12, 2-[3,5-Difluoro-3′-(trifluoromethoxy)biphenyl-4-ylcarbamoyl]benzoic acid]",2.96
140.3 to 143.4,76.4,150,–,–,–,"O=C(O)c1ccccc1C(=O)Nc1c(F)cc(-c2cccc(OCc3ccccc3)c2)cc1F [Example 13, 2-[3′-(Benzyloxy)-3,5-difluorobiphenyl-4-ylcarbamoyl]benzoic acid]",3.43
260 to 265,52.2,–,–,–,–,"CCOc1cccc(-c2cc(F)c(NC(=O)c3cc(Cl)c(Cl)cc3C(=O)O)c(Cl)c2)c1 [Example 14, 4,5-Dichloro-2-(3-chloro-3′-ethoxy-5-fluorobiphenyl-4-ylcarbamoyl)benzoic acid]",13.5
135 to 140,75.5,129,–,–,–,"CCOc1cccc(-c2cc(F)c(NC(=O)c3ccccc3C(=O)O)c(Cl)c2)c1 [Example 15, 2-(3-Chloro-3′-ethoxy-5-fluorobiphenyl-4-ylcarbamoyl)benzoic acid]",57.5
158.6 to 162.2,28,–,–,–,–,"COc1cccc(-c2cc(F)c(NC(=O)c3cc(Cl)c(Cl)cc3C(=O)O)c(F)c2)c1 [Example 16, 4,5-Dichloro-2-(3,5-difluoro-3′-methoxybiphenyl-4-ylcarbamoyl)benzoic acid]",12.3
190.1 to 192.4,50.3,–,–,–,–,"CCOc1cccc(-c2cc(F)c(NC(=O)c3cc(Cl)c(Cl)cc3C(=O)O)c(F)c2)c1 [Example 17, 4,5-Dichloro-2-(3′-ethoxy-3,5-difluorobiphenyl-4-ylcarbamoyl)benzoic acid]",11.1
163 to 168,62.2,294,–,–,–,"COc1cccc(-c2cc(Cl)c(NC(=O)c3ccccc3C(=O)O)c(Cl)c2)c1 [Example 18, 2-(3,5-Dichloro-3′-methoxybiphenyl-4-ylcarbamoyl)benzoic acid]",12.1
182 to 185,–,–,–,–,–,"O=C(O)c1ccccc1C(=O)Nc1c(Cl)cc(-c2ccccc2Cl)cc1Cl [Example 33, 2-(2′,3,5-Trichlorobiphenyl-4-ylcarbamoyl)benzoic acid]",14
185 to 187,–,–,–,–,–,"COc1ccc(Cl)c(-c2ccc(NC(=O)c3ccccc3C(=O)O)cc2F)c1 [Example 79, 2-(2′-chloro-2-fluoro-5′-methoxybiphenyl-4-ylcarbamoyl)benzoic acid]",24.6
–,–,–,–,15.1,–,"O=C(O)c1ccccc1C(=O)Nc1ccc(-c2ccccc2)cc1 [Example 85, 2-(biphenyl-4-ylcarbamoyl)benzoic acid]",13
162 to 167,–,–,–,–,–,"CCSc1cccc(-c2c(F)cc(NC(=O)c3ccccc3C(=O)O)cc2F)c1 [Example 89, 2-[3′-(ethylthio)-2,6-difluorobiphenyl-4-ylcarbamoyl]benzoic acid]",25.5
158 to 160,–,–,10.46,–,–,"O=C(O)c1ccccc1C(=O)Nc1c(F)cc(-c2cccc(OC(F)(F)F)c2)cc1F [Example 93, 2-[3,5-difluoro-3′-(trifluoromethoxy)biphenyl-4-ylcarbamoyl]benzoic acid]",–
134.5 to 137.5,13.9,–,–,–,–,"O=C(O)c1ccccc1C(=O)Nc1ccc(-c2cccc(OC3CC3)c2)cc1F [Example 94, 2-(3′-cyclopropoxy-3-fluorobiphenyl-4-ylcarbamoyl)benzoic acid]",–
150.2 to 154.3,1.49,–,–,–,–,"O=C(O)c1ccccc1C(=O)Nc1ccc(-c2cccc(OC3CC3)c2)cc1 [Example 95, 2-(3′-cyclopropoxybiphenyl-4-ylcarbamoyl)benzoic acid]",–
76 to 80,42.6,–,–,–,–,"CCCc1c[nH]c2ccc(-c3cc(F)c(NC(=O)c4ccccc4C(=O)O)c(F)c3)cc12 [Example 99, 2-[2,6-Difluoro-4-(3-propyl-1H-indol-5-yl)phenylcarbamoyl]benzoic acid]",–
98 to 102,58.7,–,–,–,–,"CCc1c[nH]c2ccc(-c3cc(F)c(NC(=O)c4ccccc4C(=O)O)c(Cl)c3)cc12 [Example 100, 2-[2-Chloro-4-(3-ethyl-1H-indol-5-yl)-6-fluorophenylcarbamoyl]benzoic acid]",–
–,–,–,–,–,77.2,"C/C(O)=C(\C#N)C(=O)Nc1ccc(C(F)(F)F)cc1 [Teriflunomide, reference compound]",0

# Continued, compound first:
SMILES,melting point [°C],inhibition at 1 µM [1] [%],IC50 [1] [nM],h-DHODH % inhibition 1 uM [1] [%],inhibition at 0.3 µM ([1]; compound tested at 0.3 uM (footnote *)) [%],inhibition at 10 µM ([1]; compound tested at 10 uM) [%],inhibition at 10 µM [2] [%]
"COc1cccc(-c2cc(F)c(NC(=O)c3ccccc3C(=O)O)c(F)c2)c1 [Example 1, 2-(3,5-Difluoro-3′-methoxybiphenyl-4-ylcarbamoyl)benzoic acid]",168 to 173,53.3,741,–,–,–,6.13
"COc1cccc(-c2cc(F)c(NC(=O)c3ccccc3S(=O)(=O)O)c(F)c2)c1 [Example 2, 2-(3,5-Difluoro-3′-methoxybiphenyl-4-ylcarbamoyl)benzenesulfonic acid]",97 to 102,12.2,–,–,–,–,29.2
"COc1cccc(-c2ccc(NC(=O)c3ccccc3C(=O)O)cn2)c1 [Example 3, 2-(6-(3-Methoxyphenyl)pyridin-3-ylcarbamoyl)benzoic acid]",194 to 199,14.3,–,–,–,–,17.1
"CCOc1cccc(-c2ccc(NC(=O)c3ccccc3C(=O)O)c(F)c2)c1 [Example 4, 2-(3′-Ethoxy-3-fluorobiphenyl-4-ylcarbamoyl)benzoic acid]",151 to 157,43,–,–,–,–,11.2
"COc1cccc(-c2cc(F)c(NC(=O)c3nccnc3C(=O)O)c(F)c2)c1 [Example 6, 3-(3,5-Difluoro-3′-methoxybiphenyl-4-ylcarbamoyl)pyrazine-2-carboxylic acid]",180.1 to 183.4,2.26,–,–,–,–,9.52
"CCOc1cccc(-c2cc(F)c(NC(=O)c3nccnc3C(=O)O)c(F)c2)c1 [Example 7, 3-(3,5-Difluoro-3′-ethoxybiphenyl-4-ylcarbamoyl)pyrazine-2-carboxylic acid]",133.4 to 137.3,4.53,–,–,–,–,8.58
"O=C(O)c1ccccc1C(=O)Nc1c(F)cc(-c2ccccc2Cl)cc1F [Example 8, 2-(2′-Chloro-3,5-difluorobiphenyl-4-ylcarbamoyl)benzoic acid]",143.5 to 145.1,85.8,90,–,–,–,35.4
"O=C(O)c1nccnc1C(=O)Nc1c(F)cc(-c2cccc(OCc3ccccc3)c2)cc1F [Example 9, 3-[3′-(Benzyloxy)-3,5-difluorobiphenyl-4-ylcarbamoyl]pyrazine-2-carboxylic acid]",142 to 144.5,10.3,–,–,–,–,26.9
"O=C(O)c1ccccc1C(=O)Nc1c(F)cc(-c2ccccc2)cc1F [Example 10, 2-(3,5-Difluorobiphenyl-4-ylcarbamoyl)benzoic acid]",161.2 to 165.7,46.8,–,–,–,–,6.82
"CCOc1cccc(-c2cc(F)c(NC(=O)c3nccnc3C(=O)O)c(Cl)c2)c1 [Example 11, 3-(3-Chloro-3′-ethoxy-5-fluorobiphenyl-4-ylcarbamoyl)pyrazine-2-carboxylic acid]",148 to 153,–,–,–,–,–,2.62
"CCCCOc1cccc(-c2c(F)c(F)c(NC(=O)c3ccccc3C(=O)O)c(F)c2F)c1 [Example 91, 2-(3′-butoxy-2,3,5,6-tetrafluorobiphenyl-4-ylcarbamoyl)benzoic acid]",215.5 to 218.5,42.4,–,–,–,–,–
"CCCCOc1cccc(-c2ccc(NC(=O)c3ccccc3C(=O)O)c(F)c2)c1 [Example 92, 2-(3′-butoxy-3-fluorobiphenyl-4-ylcarbamoyl)benzoic acid]",102 to 105,9.65,–,–,–,–,–
"CCCCOc1cccc(-c2ccc(NC(=O)c3ccccc3C(=O)O)cc2)c1 [Example 96, 2-(3′-butoxybiphenyl-4-ylcarbamoyl)benzoic acid]",155 to 157,–,–,–,–,–,–
"CCCCOc1cccc(-c2ccc(NC(=O)c3ccccc3C(=O)O)cc2F)c1 [Example 97, 2-(3′-butoxy-2-fluorobiphenyl-4-ylcarbamoyl)benzoic acid]",164 to 167,–,–,–,–,–,–
"CCCCOc1cccc(-c2c(F)cc(NC(=O)c3ccccc3C(=O)O)cc2F)c1 [Example 98, 2-(3′-Butoxy-2,6-difluorobiphenyl-4-ylcarbamoyl)benzoic acid]",181.1 to 184.2,31,–,–,–,–,–
